One assay addresses T1, KDM4B (Homo sapiens, UniProt O94953).
T1 sequence (O94953 1-1096): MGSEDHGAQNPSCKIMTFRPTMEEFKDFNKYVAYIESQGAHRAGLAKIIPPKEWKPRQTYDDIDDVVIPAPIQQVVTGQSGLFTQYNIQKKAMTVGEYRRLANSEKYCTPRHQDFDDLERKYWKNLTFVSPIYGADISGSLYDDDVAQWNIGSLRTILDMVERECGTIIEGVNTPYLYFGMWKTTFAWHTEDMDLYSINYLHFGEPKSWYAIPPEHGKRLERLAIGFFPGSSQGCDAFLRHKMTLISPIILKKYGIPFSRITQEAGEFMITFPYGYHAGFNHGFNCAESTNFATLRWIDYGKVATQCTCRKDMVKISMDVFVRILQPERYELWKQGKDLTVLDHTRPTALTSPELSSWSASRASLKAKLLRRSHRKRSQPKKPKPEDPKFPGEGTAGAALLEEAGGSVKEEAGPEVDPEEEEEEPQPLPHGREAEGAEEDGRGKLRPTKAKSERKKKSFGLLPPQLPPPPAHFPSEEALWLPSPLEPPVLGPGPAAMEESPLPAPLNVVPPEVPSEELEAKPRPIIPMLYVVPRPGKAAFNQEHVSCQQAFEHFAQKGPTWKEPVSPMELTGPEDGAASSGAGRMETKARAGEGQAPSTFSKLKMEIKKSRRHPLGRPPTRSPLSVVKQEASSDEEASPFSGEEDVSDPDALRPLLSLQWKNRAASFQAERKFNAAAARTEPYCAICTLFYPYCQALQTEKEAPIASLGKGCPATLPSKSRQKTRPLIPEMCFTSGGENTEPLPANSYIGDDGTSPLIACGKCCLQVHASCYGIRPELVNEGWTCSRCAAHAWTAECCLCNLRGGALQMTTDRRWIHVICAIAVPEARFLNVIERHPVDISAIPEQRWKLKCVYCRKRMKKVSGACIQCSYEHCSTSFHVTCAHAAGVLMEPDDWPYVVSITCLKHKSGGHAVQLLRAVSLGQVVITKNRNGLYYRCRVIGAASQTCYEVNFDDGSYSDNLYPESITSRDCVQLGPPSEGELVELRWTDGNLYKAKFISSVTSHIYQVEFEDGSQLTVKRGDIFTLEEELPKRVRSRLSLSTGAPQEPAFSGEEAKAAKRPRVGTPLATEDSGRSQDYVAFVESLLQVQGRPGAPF
As to the kind of experiment: AlphaScreen in vitro demethylase assay. Format: biochemical. The conditions noted are these: IC50 ± SD (number of replicates). How it is done: (§1) IC50 values were determined as previously described. The following amendments were made to the protocol for carrying out 2-OG competition assays.
In general terms: Alpha assays give light when donor and acceptor beads are brought close together.

For another assay, the target named is T2, KDM3A (Homo sapiens, UniProt Q9Y4C1).
T2 sequence (Q9Y4C1 1-1321): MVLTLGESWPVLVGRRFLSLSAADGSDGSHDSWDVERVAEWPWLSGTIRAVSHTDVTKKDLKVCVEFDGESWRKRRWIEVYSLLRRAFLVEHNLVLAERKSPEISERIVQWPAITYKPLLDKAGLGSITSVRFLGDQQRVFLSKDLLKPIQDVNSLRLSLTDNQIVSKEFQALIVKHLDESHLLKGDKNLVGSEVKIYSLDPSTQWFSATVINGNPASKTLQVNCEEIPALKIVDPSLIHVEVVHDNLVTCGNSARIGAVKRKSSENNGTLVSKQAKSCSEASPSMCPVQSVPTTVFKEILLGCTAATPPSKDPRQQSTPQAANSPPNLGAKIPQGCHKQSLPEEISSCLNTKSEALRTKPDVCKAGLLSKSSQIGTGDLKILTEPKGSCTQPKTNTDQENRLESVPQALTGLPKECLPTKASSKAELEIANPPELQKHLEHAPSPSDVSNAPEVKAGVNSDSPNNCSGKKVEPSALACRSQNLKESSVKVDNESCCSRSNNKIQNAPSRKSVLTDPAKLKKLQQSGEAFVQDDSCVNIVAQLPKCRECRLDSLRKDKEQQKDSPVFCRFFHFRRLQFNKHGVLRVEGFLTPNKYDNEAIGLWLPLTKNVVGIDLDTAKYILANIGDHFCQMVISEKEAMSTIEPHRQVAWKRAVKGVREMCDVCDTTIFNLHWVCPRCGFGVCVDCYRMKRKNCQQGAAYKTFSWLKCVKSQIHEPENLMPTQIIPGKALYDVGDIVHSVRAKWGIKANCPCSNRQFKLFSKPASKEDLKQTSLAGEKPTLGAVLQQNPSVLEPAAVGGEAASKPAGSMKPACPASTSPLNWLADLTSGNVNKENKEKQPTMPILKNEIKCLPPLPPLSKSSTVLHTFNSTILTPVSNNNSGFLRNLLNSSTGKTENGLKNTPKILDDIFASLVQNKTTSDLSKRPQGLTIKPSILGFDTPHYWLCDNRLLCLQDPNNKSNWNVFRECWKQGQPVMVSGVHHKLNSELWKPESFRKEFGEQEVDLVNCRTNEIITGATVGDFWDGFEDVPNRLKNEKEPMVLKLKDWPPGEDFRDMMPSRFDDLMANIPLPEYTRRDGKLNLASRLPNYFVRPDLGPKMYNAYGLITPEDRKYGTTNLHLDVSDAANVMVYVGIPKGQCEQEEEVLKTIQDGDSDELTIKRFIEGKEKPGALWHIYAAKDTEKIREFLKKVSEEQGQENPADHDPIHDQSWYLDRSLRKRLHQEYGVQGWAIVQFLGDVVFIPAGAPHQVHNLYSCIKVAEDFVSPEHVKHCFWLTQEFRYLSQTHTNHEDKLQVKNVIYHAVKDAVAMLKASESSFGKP
Description: AlphaScreen in vitro demethylase assay. The conditions noted are these: IC50 ± SD (number of replicates). Format: biochemical. How it is done: as §1

For CPI-455, the IC50 on KDM4B is 44000 nM; against KDM3A, over 100000 nM.
The like results for `CCOC(=O)c1ccnc(CNCC(=O)N(CC)CCN(C)C)c1` [KDOAM-21] were, in that order, 2500 nM and 2600 ± 1300 nM.
Compound `O=c1[nH]cnc2c(-n3cc(CCN4CCC(c5cccc(Cl)c5)CC4)cn3)cccc12` [CCT366293, 8-(4-(2-(4-(3-Chlorophenyl)piperidin-1-yl)ethyl)-1H-pyrazol-1-yl)quinazolin-4(3H)-one] displayed an IC50 at KDM4B of over 10000 nM.
`CCN(CCN(C)C)C(=O)CNCc1cc(C(=O)O)ccn1` [KDOAM-20]: the IC50 at KDM4B came out at 99 nM; against KDM3A it was 1200 ± 910 nM.

Usually IC50 stands for the concentration needed to halve the response being measured.
